Converted amounts (≈) assume the structure as drawn. Where two headings read alike, the source gives them in different places.
What was measured:
Type in all cases: cell-based
[1] = test system: Trichophyton mentagrophytes ATCC 9533; test: antifungal activity, disc agar assay (Minimum Inhibitory Concentration), Trichophyton mentagrophytes
Experimental: (§1) The compounds of the invention are tested to determine their antifungal activity. The assay procedure is as follows:
(§2) The compounds to be tested are solubilized or suspended in appropriate reagent and further diluted in sterile distilled water to provide a range of concentrations from 200 to 10 μg/ml. 20 Lambda portions are placed on sterile dried 1/4 inch paper discs and allowed to dry for 20-30 minutes. Agar plates with a 10 ml base layer are seeded with the fungi in a 4 ml seed layer and allowed to solidify. The impregnated discs are then placed on the seeded agar surface and incubated for the time required for the particular culture.
(§3) The representative fungi are:
Trichophyton mentagrophytes
(§4) All are human pathogens; the first four cause serious systemic mycotic infections as well as local. The trychophyton culture is mainly a dermatophyte.

[2] = test system: Histoplasma capsulatum Yeast Phase ATCC 11407; test: microbe, parasite or virus in culture; conditions: read-out: Minimum Inhibitory Concentration
[3] = test system: Candida albicans ATCC 10231; test: antifungal activity, disc agar assay (Minimum Inhibitory Concentration), Candida albicans
Experimental: as §1, §2, §3
Candida albicans ATCC 10231
as §4

[4] = test system: Blastomyces dermatitidis Yeast Phase ATCC 28839; test: antifungal activity, disc agar assay (Minimum Inhibitory Concentration), Blastomyces dermatitidis yeast phase; conditions: read-out: Minimum Inhibitory Concentration
Experimental: as §1, §2, §3
Blastomyces dermatitidis
as §4

[5] = test system: Cryptococcus neoformans ATCC 14115; test: antifungal activity, disc agar assay (Minimum Inhibitory Concentration), Cryptococcus neoformans
Experimental: as §1, §2, §3, §4

[6] = ATCC9533, Trichophyton Mentagrophytes ATCC 9533, read-out: Minimum Inhibitory Concentration
[7] = ATCC10231, Candida Albicans ATCC 10231, read-out: Minimum Inhibitory Concentration
[8] = Blastomyces Dermatitidis Yeast Phase ATCC 28839
[9] = ATCC14115, Cryptococcus Neoformans ATCC 14115, read-out: Minimum Inhibitory Concentration

Structure (SMILES) | MIC [1, 6] [µg/mL] | MIC [2] [µg/mL] | MIC [3, 7] [µg/mL] | MIC [4, 8] [µg/mL] | MIC [5, 9] [µg/mL] | MIC ([1]; Trichophyton mentagrophytes, ATCC9533, read-out: Minimum Inhibitory Concentration) [µg/mL] | MIC ([3]; Candida albicans, ATCC10231, read-out: Minimum Inhibitory Concentration) [µg/mL] | MIC [4] [µg/mL] | MIC ([5]; Cryptococcus neoformans, ATCC14115, read-out: Minimum Inhibitory Concentration) [µg/mL]
CCOC(=O)c1c[nH]c2c(cc(F)c3c2c(=O)c(C(=O)OCC)cn3CC)c1=O [Example 6, 7-Ethyl-6-fluoro-1,4,7,10-tetrahydro-4,10-dioxo-1,7-phenanthroline-3,9-dicarboxylic acid diethyl ester] | > 64 | 64 (≈ 159 µM) | > 64 | 64 (≈ 159 µM) | > 64 |  |  |  | 
CCOC(=O)c1c[nH]c2c(F)cc3c(=O)c(C(=O)O)cn(CC)c3c2c1=O [Example 1, 1-Ethyl-6-fluoro-1,4,7,10-tetrahydro-4,10-dioxo-1,7-phenanthroline-3,9-dicarboxylic acid 9-ethyl ester] | 64 (≈ 171 µM) | 32 (≈ 85.5 µM) | 32 (≈ 85.5 µM) | 32 (≈ 85.5 µM) | 64 (≈ 171 µM) |  |  |  | 
CCOC(=O)c1cn(CC)c2c(cc(F)c3c2c(=O)c(C(=O)OCC)cn3CC)c1=O [Example 2, 1,7-Diethyl-6-fluoro-1,4,7,10-tetrahydro-4,10-dioxo-1,7-phenanthroline-3,9-dicarboxylic acid diethyl ester] | > 64 | 64 (≈ 149 µM) | > 64 | 64 (≈ 149 µM) | > 64 |  |  |  | 
CCn1cc(C(=O)O)c(=O)c2c1c(F)cc1c(=O)c(C(=O)O)cn(CC)c12 [Example 3, 1,7-Diethyl-6-fluoro-1,4,7,10-tetrahydro-4,10-dioxo-1,7-phenanthroline-3,9-dicarboxylic acid] | > 64 | 64 (≈ 171 µM) | > 64 | 64 (≈ 171 µM) | > 64 |  |  |  | 
CCOC(=O)c1c[nH]c2c(cc(F)c3c2c(=O)ccn3CC)c1=O [Example 4, 7-Ethyl-6-fluoro-1,4,7,10-tetrahydro-4,10-dioxo-1,7-phenanthroline-3-carboxylic acid ethyl ester] |  | > 256 |  |  |  | > 256 | > 256 | > 256 | > 256
CCOC(=O)c1c[nH]c2c(cc(F)c3c2c(=O)c(C(=O)O)cn3CC)c1=O [Example 5, 7-Ethyl-6-fluoro-1,4,7,10-tetrahydro-4,10-dioxo-1,7-phenanthroline-3,9-dicarboxylic acid 3-ethyl ester] | > 256 | > 256 | > 256 | > 256 | > 256 |  |  |  | 
